# Measurements as given in US20150051176A1, “ARYL DERIVATIVES AS SPHINGOSINE-1 PHOSPHATE RECEPTORS MODULATORS” (Allergan, Inc., priority 2013, published 2015).
# Molecular target: T1, human S1P1 receptor (Homo sapiens, UniProt P21453)
# T1 construct: expressed in transfected cells; membranes used
# Assay: GTP γ35S binding assay for S1P1 activity
# Type: biochemical
# Details: membranes of cells stably expressing the S1P1 receptor, test concentrations 0.08 to 5,000 nM
# Description: Compounds were synthesized and tested for S1P1 activity using the GTP γ^35S binding assay. These compounds may be assessed for their ability to activate or block activation of the human S1P1 receptor in cells stably expressing the S1P1 receptor.
# GTP γ^35S binding was measured in the medium containing (mM) HEPES 25, pH 7.4, MgCl2 10, NaCl 100, dithiothreitol 0.5, digitonin 0.003%, 0.2 nM GTP γ^35S, and 5 μg membrane protein in a volume of 150 μl. Test compounds were included in the concentration range from 0.08 to 5,000 nM unless indicated otherwise. Membranes were incubated with 100 μM 5′-adenylylimidodiphosphate for 30 min, and subsequently with 10 μM GDP for 10 min on ice. Drug solutions and membrane were mixed, and then reactions were initiated by adding GTP γ^35S and continued for 30 min at 25° C. Reaction mixtures were filtered over Whatman GF/B filters under vacuum, and washed three times with 3 mL of ice-cold buffer (HEPES 25, pH7.4, MgCl2 10 and NaCl 100). Filters were dried and mixed with scintillant, and counted for ^35S activity using a β-counter. Agonist-induced GTP γ^35S binding was obtained by subtracting that in the absence of agonist. Binding data were analyzed using a non-linear regression method. In case of antagonist assay, the reaction mixture contained 10 nM […] in the presence of test antagonist at concentrations ranging from 0.08 to 5000 nM.
# T1 sequence (P21453 whole entry): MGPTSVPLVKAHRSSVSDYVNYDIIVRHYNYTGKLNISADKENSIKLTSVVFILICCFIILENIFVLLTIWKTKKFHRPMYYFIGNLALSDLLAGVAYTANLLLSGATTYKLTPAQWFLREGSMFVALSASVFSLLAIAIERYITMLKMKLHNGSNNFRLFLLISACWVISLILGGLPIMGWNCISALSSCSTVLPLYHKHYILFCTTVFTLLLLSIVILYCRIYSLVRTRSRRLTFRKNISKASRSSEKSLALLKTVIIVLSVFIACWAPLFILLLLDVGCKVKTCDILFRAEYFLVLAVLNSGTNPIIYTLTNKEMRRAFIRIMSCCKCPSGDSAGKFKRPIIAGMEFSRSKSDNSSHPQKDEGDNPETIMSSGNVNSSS
row,SMILES,EC50 [µM]
1,"Cc1ccc(CC(CCCCCCNCCCP(=O)(O)O)c2cccc(Cl)c2)cc1C (centres unmarked) [3-{[7-(3-Chlorophenyl)-8-(3,4-dimethylphenyl)octyl]amino}propyl)phosphonic acid]",0.169
2,"Cc1ccc(CC(CCCCCCCNCCC(=O)O)c2cc(F)cc(F)c2)cc1C (centres unmarked) [3-{[8-(3,5-Difluorophenyl)-9-(3,4-dimethylphenyl)nonyl]amino}propanoic acid]",0.0454
3,"Cc1ccc(CC(CCCCCCCNCCC(=O)O)c2cccc(Cl)c2)cc1C (centres unmarked) [3-{[8-(3-Chlorophenyl)-9-(3,4-dimethylphenyl)nonyl]amino}propanoic acid]",0.487
4,"Cc1ccc(CC(CCCCCCCNCCCP(=O)(O)O)c2cccc(Cl)c2)cc1C (centres unmarked) [3-{[8-(3-chlorophenyl)-9-(3,4-dimethylphenyl)nonyl]amino}propylphosphonic acid]",0.00818
5,O=C(O)CCNCCCCCCCCC(Cc1ccccc1)c1cccc(Cl)c1 (centres unmarked) [3-{[9-(3-Chlorophenyl)-10-phenyldecyl]amino}propanoic acid],0.0218
6,"Cc1ccc(CC(CCCCCCCNCCCP(=O)(O)O)c2cc(F)cc(F)c2)cc1C (centres unmarked) [(3-{[8-(3,5-Difluorophenyl)-9-(3,4-dimethylphenyl)nonyl]amino}propyl)phosphonic acid]",0.00303
7,"Cc1ccc(CC(CCCCCCCCNCCCP(=O)(O)O)c2cccc(Cl)c2)cc1C (centres unmarked) [(3-{[9-(3-Chlorophenyl)-10-(3,4-dimethylphenyl)decyl]amino}propyl)phosphonic acid]",0.293
8,O=P(O)(O)CCCNCCCCCCCCC(Cc1ccccc1)c1cccc(Cl)c1 (centres unmarked) [(3-{[9-(3-Chlorophenyl)-10-phenyldecyl]amino}propyl)phosphonic acid],0.00213
